Source: the OPERA property sets (Mansouri et al. 2018)

Question: Which logP does the source give for `O=C1CC(Oc2cccc3ccccc23)N1` (stereo not given) here?
Answer: 2.66

Question: With `O=C1CC(Sc2ccc3ccccc3c2)N1` (stereo not given) as the compound, how does the logP read?
Answer: 2.64

Question: For `CCOC(=O)CN1C(=O)CC1Oc1ccc(C(=O)C=Cc2ccccc2)cc1` (stereo not given), which logP is on record?
Answer: 3.3

Question: With `CC(C)(C)OC(=O)CN1C(=O)CC1Oc1ccc2ccccc2c1` (stereo not given) as the compound, how does the logP read?
Answer: 3.6

Question: Which logP does the source give for `O=C1CC(Oc2ccc3ccccc3c2)N1` (stereo not given) here?
Answer: 2.29

Question: With `O=C1CC(Oc2ccc(C(=O)C=Cc3ccccc3)cc2)N1` (stereo not given) as the compound, how does the logP read?
Answer: 2.56

Question: For `O=C1CC(Oc2ccccc2C(=O)c2ccccc2)N1` (stereo not given), which logP is on record?
Answer: 1.83

Question: For `CCOC(=O)CN1C(=O)CC1Sc1ccc2ccccc2c1` (stereo not given), which logP is on record?
Answer: 3.4

Question: With `CCOC(=O)CN1C(=O)CC1Oc1ccc(C(=O)c2ccccc2)cc1` (stereo not given) as the compound, how does the logP read?
Answer: 3

Question: For `CCOC(=O)CN1C(=O)CC1Oc1ccc2ccccc2c1` (stereo not given), which logP is on record?
Answer: 2.8

Question: For `O=C1CC(Oc2ccc(-c3ccccc3)cc2)N1` (stereo not given), which logP is on record?
Answer: 2.61

Question: Which logP does the source give for `O=C1CC(Oc2ccc(C(=O)c3ccccc3)cc2)N1` (stereo not given) here?
Answer: 2.14

Question: With `O=C1CC(Sc2ccc(Cl)cc2)N1` (stereo not given) as the compound, how does the logP read?
Answer: 2.31

Question: Which logP does the source give for `O=C1CC(Oc2cccc(C(=O)OCc3ccccc3)c2)N1` (stereo not given) here?
Answer: 2.83

Question: For `O=C1CC(Sc2ccccc2C(=O)OCc2ccccc2)N1` (stereo not given), which logP is on record?
Answer: 2.62
